# Source: patent US12030876B2, “Aryl hydrocarbon receptor (AHR) agonists and uses thereof” (Ikena Oncology, Inc., priority 2019, dated 2024)
# Biological target: T1, AHR (Homo sapiens, UniProt P35869)
# T1 construct: endogenous in cells; host or cells: HepG2 (human), transfected with a DRE-luciferase reporter only
# T1 sequence (P35869 11-848): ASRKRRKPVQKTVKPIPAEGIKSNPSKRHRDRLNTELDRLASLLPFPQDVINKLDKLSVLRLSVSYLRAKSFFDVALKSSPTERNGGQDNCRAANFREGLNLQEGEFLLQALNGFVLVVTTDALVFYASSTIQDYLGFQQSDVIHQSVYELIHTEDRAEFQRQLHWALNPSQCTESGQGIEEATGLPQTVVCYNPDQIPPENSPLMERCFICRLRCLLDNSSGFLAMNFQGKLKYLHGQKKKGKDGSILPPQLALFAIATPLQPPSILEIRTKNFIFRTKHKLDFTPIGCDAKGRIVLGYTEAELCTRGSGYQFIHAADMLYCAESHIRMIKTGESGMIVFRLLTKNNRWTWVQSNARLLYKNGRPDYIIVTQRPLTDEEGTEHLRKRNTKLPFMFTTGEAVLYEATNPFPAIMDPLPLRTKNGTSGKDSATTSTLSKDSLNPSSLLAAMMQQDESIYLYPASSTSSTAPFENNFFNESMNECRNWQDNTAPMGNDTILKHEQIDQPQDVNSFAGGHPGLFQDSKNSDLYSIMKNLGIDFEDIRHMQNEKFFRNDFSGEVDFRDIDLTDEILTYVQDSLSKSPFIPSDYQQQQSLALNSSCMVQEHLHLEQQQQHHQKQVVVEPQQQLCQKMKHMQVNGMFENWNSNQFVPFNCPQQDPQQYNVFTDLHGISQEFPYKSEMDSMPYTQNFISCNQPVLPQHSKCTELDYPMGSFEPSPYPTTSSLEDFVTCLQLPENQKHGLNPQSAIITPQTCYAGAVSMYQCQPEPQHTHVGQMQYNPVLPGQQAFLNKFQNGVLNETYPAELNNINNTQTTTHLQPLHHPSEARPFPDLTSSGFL
# Experiment: DRE-Luciferase Reporter Assay, HepG2 (agonist)
# Assay type: cell-based
# Details: HepG2, Table 3; read-out: DRE-Luc HepG2 - Agonist: Average EC50
# Outline: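 Cells carrying a stably or transiently transfected DRE-luciferase reporter, plated overnight at 37 C, then given agonist for 6, 16 or 24 h before lysis and luciferase read-out. Signal scaled between no ligand (minimum) and activating ligand alone, e.g. TCDD (maximum); EC50 = concentration giving half-maximal luciferase activity.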
row,Structure (SMILES),EC50
1,OCc1cccc(-c2csc(Nc3cccc(C(F)(F)F)c3)n2)c1 [I-125],10 to 100 nM
2,COc1cc(-n2cnc(Nc3cccc(C(F)(F)F)c3)n2)ccn1 [I-143],100 to 1000 nM
3,O=c1cc(-n2cnc(Nc3cccc(C(F)(F)F)c3)n2)cc[nH]1 [I-144],10 to 100 nM
4,NC(=O)c1cccc(Nc2nc(-c3ccc[n+]([O-])c3)cs2)c1 [I-147],100 to 1000 nM
5,C[N+](C)(CCNC(=O)N(c1cccc(C(F)(F)F)c1)c1nc(-c2cccc([N+](=O)[O-])c2)cs1)CCNC(=O)N(c1cccc(C(F)(F)F)c1)c1nc(-c2cccc([N+](=O)[O-])c2)cs1 [I-148],10 to 100 nM
6,C[N+](C)(C)CCOc1cc(-c2csc(Nc3cccc(C(F)(F)F)c3)n2)ccn1 [I-149],100 to 1000 nM
7,N#Cc1cccc(-c2nc(Nc3cccc(C(F)(F)F)c3)no2)c1 [I-152],> 1000 nM
8,CN(C)c1cc(-c2csc(Nc3cccc(C(F)(F)F)c3)n2)ccn1 [I-153],10 to 100 nM
9,CCCOc1cc(-c2csc(Nc3cccc(C(F)(F)F)c3)n2)ccn1 [I-155],10 to 100 nM
10,Nc1cc(-c2csc(Nc3cccc(C(F)(F)F)c3)n2)ccn1 [I-156],< 10 nM
11,N#Cc1cccc(-c2noc(Nc3cccc(C(F)(F)F)c3)n2)c1 [I-157],100 to 1000 nM
12,[O-][n+]1cccc(-n2cnc(Nc3cccc(C(F)(F)F)c3)n2)c1 [I-158],10 to 100 nM

# More lines, now with the values ahead:
row,EC50,Structure (SMILES)
1,< 10 nM,[O-][n+]1cccc(-c2csc(Nc3cccc(C(F)(F)F)n3)n2)c1 [I-121]
2,< 10 nM,O=c1cc(-c2nsc(Nc3cccc(C(F)(F)F)c3)n2)cc[nH]1 [I-128]
3,< 10 nM,O=c1cccc(-c2csc(Nc3cccc(C(F)(F)F)c3)n2)[nH]1 [I-130]
4,< 10 nM,CSc1cccc(Nc2nc(-c3cccc([N+](=O)[O-])c3)cs2)c1 [I-136]
5,< 10 nM,N#Cc1cccc(-n2cnc(Nc3cccc(C(F)(F)F)c3)n2)c1 [I-145]
6,< 10 nM,C[N+](C)(C)CCNC(=O)N(c1cccc(C(F)(F)F)c1)c1nc(-c2cc[nH]c(=O)c2)cs1 [I-146]
7,< 10 nM,CNc1cc(-c2csc(Nc3cccc(C(F)(F)F)c3)n2)ccn1 [I-154]

# Biological target: T2, AHR (Mus musculus, UniProt P30561)
# T2 sequence (P30561 1-848 F348L/P471L): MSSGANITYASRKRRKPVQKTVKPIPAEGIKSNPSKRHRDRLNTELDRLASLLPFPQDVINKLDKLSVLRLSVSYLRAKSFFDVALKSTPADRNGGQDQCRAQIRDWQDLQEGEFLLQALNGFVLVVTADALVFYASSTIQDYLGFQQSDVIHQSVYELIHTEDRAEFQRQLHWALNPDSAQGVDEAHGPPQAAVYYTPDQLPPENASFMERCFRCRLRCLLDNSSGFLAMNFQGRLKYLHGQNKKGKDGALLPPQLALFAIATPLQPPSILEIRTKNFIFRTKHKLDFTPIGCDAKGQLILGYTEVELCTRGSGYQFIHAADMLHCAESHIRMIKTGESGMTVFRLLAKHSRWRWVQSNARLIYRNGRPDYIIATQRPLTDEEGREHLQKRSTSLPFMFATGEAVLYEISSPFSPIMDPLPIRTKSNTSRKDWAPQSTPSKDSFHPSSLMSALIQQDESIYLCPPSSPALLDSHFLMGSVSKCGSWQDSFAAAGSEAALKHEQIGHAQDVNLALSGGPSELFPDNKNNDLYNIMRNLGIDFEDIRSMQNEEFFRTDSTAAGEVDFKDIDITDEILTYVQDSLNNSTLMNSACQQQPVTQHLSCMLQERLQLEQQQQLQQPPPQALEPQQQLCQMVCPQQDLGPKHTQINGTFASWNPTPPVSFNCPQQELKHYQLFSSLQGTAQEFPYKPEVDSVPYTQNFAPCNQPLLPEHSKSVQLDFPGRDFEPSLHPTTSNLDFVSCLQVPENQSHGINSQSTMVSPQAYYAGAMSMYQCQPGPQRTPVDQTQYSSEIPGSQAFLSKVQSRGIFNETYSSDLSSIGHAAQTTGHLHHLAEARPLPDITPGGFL
# Experiment: DRE-Luciferase Reporter Assay, Hepa1.6 (agonist)
# Assay type: cell-based, murine
# Details: Hepa1.6, Table 3; read-out: DRE-Luc Hepa1.6 - Agonist: Average EC50
# Experimental: DRE-Luciferase Reporter Assay
# AHR binds to Dioxin Responsive Elements (DRE) upstream of genes that it activates. One measure of AHR activity is activation of a reporter gene, such as luciferase, downstream of one or multiple DRE elements. Luciferase activity reflects activation and inhibition of AHR in the cells expressing this reporter.
# Murine Hepa1-6 or Hepa-1c1c7 or other murine cell line with a DRE-luciferase reporter either stably or transiently transfected are plated in media in plates (96-well, 384-well or other plates) and incubated overnight at 37 C in a CO2 incubator. Likewise, human HepG2 or other human cell line with a DRE-luciferase reporter either stably or transiently transfected are plated in media in plates (96-well, 384-well or other plates) and incubated overnight at 37 C in a CO2 incubator.
# The next day, an AHR agonist compound is added. Cells are incubated for 6, 16 or 24 hours or another time point and then lysed for determination of luciferase activity as a read-out of the AHR activation. Luciferase can be measured with a commercial kit such as the Promega Luciferase kit or any kit or reagents that provide the luciferin substrate for measuring luciferase activity. The level of luciferase with only activating ligand (e.g. such as TCDD, kynurenine, ITE (2-(1H-indole-3-ylcarbonyl)-4-thiazolecarboxylic methyl ester), VAF347, BNF (beta-naphthoflavone), ICZ (6-formylindolo(3,2-b) carbazole or other AHR ligands) added is the maximum signal while the luciferase with no ligand is the minimum signal. EC50s can be determined as the concentration which activates half of the maximum luciferase activity.
row,Structure (SMILES),EC50
1,OCc1cccc(-c2csc(Nc3cccc(C(F)(F)F)c3)n2)c1 [I-125],> 1000 nM
2,COc1cc(-n2cnc(Nc3cccc(C(F)(F)F)c3)n2)ccn1 [I-143],> 1000 nM
3,O=c1cc(-n2cnc(Nc3cccc(C(F)(F)F)c3)n2)cc[nH]1 [I-144],> 1000 nM
4,NC(=O)c1cccc(Nc2nc(-c3ccc[n+]([O-])c3)cs2)c1 [I-147],> 1000 nM
5,C[N+](C)(CCNC(=O)N(c1cccc(C(F)(F)F)c1)c1nc(-c2cccc([N+](=O)[O-])c2)cs1)CCNC(=O)N(c1cccc(C(F)(F)F)c1)c1nc(-c2cccc([N+](=O)[O-])c2)cs1 [I-148],100 to 1000 nM
6,C[N+](C)(C)CCOc1cc(-c2csc(Nc3cccc(C(F)(F)F)c3)n2)ccn1 [I-149],100 to 1000 nM
7,N#Cc1cccc(-c2nc(Nc3cccc(C(F)(F)F)c3)no2)c1 [I-152],> 1000 nM
8,CN(C)c1cc(-c2csc(Nc3cccc(C(F)(F)F)c3)n2)ccn1 [I-153],> 1000 nM
9,CCCOc1cc(-c2csc(Nc3cccc(C(F)(F)F)c3)n2)ccn1 [I-155],> 1000 nM
10,Nc1cc(-c2csc(Nc3cccc(C(F)(F)F)c3)n2)ccn1 [I-156],< 10 nM
11,N#Cc1cccc(-c2noc(Nc3cccc(C(F)(F)F)c3)n2)c1 [I-157],> 1000 nM
12,[O-][n+]1cccc(-n2cnc(Nc3cccc(C(F)(F)F)c3)n2)c1 [I-158],> 1000 nM

# Now from value to compound:
row,EC50,Structure (SMILES)
1,> 1000 nM,[O-][n+]1cccc(-c2csc(Nc3cccc(C(F)(F)F)n3)n2)c1 [I-121]
2,> 1000 nM,O=c1cc(-c2nsc(Nc3cccc(C(F)(F)F)c3)n2)cc[nH]1 [I-128]
3,< 10 nM,O=c1cccc(-c2csc(Nc3cccc(C(F)(F)F)c3)n2)[nH]1 [I-130]
4,100 to 1000 nM,CSc1cccc(Nc2nc(-c3cccc([N+](=O)[O-])c3)cs2)c1 [I-136]
5,> 1000 nM,N#Cc1cccc(-n2cnc(Nc3cccc(C(F)(F)F)c3)n2)c1 [I-145]
6,> 1000 nM,C[N+](C)(C)CCNC(=O)N(c1cccc(C(F)(F)F)c1)c1nc(-c2cc[nH]c(=O)c2)cs1 [I-146]
7,10 to 100 nM,CNc1cc(-c2csc(Nc3cccc(C(F)(F)F)c3)n2)ccn1 [I-154]
